The text below walks through data of article PMC11242993, “Evaluation of the Therapeutic Potential of Sulfonyl Urea Derivatives as Soluble Epoxide Hydrolase (sEH) Inhibitors” (Molecules, 2024).

Broadly, the amount remaining is what is left of the initial amount, in per cent. A word on the half-life: it is how long it takes for the measured level to halve.

Data set [1] concerns C57BL/6J male mice. The data set can be described thus: Hot plate model. It counts as in vivo. The following applies: 10 mg/kg i.p. On the procedure: Thermal nociception in the hot plate test was assessed with a commercially available apparatus (Hotplate Analgesia Meter, Columbus Instruments) consisting of a metal plate to a constant temperature of 55.0 ± 0.1 °C. Mice were put into the hot plate testing instrument to adapt for at least 15 min. The device was connected to a manually operated timer that recorded the amount of time the mouse spent on the heated surface before showing signs of nociception (e.g., licked its paws or jumped), the cut-off time was 60 s. The baseline (basic pain threshold, the response was more than 25 s, and the jumping mice were excluded.) was calculated as the mean of three readings recorded before testing at intervals of 15 min. The time course of latency was then determined at 15, 30, 45, 60, 90, and 120 min after compound treatment. Data were analyzed as time-course curves of the percentage of maximum effect MPE% = (post drug latency − baseline latency) × 100/(cut-off time − baseline latency). C57BL/6J male mice obtained from The Jackson Laboratory (Bar Harbor, ME, USA) weighing 28 g were used for the hot plate test. Animal procedures were conducted following the rules and regulations of the Institutional Animal Care and Use Committee of the National Institute on Alcohol Abuse and Alcoholism (NIAAA) under the protocols of LPS-GK1.

A short description of data set [2]: Plasma protein binding (equilibrium dialysis), mouse. The following applies: for fraction unbound at 5 h, 1 μM: plasma (non-diluted), pH 7.4, read-out: Plasma Protein Binding Mouse % of Bound Comp (converted). The format is in vitro ADME. How it is done:
The assay was performed in a multiple-use 96-well dialysis unit (HTD96b dialyzer). Each individual well unit consisted of 2 chambers separated by a vertically aligned dialysis membrane of predetermined pore size (MWCO 12–14 kDa). An amount of 120 μL of non-diluted plasma spiked with the compound (1 μM, final DMSO concentration 1%) was added to one chamber, and the same volume of PBS buffer with pH 7.4 was added to the other chamber. The HTD96b dialyzer was covered with adhesive sealing film and incubated at 37 °C and shaken at 100 rpm for 5 h. For sample preparation, an aliquot of the content of each chamber was mixed with the same volume of the blank opposite matrix. To define the non-specific loss of the compound during this assay, a standard solution was created by mixing an aliquot of spiked plasma with a blank buffer without dialysis. Two aliquots of the standard solution were incubated at 37 °C and shaken at 100 rpm for 5 h (recovery samples). The other two aliquots were immediately diluted with acetonitrile and stored at 4 °C until LC–MS/MS analysis (stability samples). All samples were diluted 5-fold with 100% methanol with subsequent plasma protein sedimentation by centrifuging at 6000 rpm for 5 min. Supernatants were analyzed using the HPLC system coupled with a tandem mass spectrometer.
(In general: In equilibrium dialysis free small molecules cross a membrane that holds back macromolecules.)

Another data set can be described thus: Microsomal stability. Particulars: pH 7.4, human liver microsomes; for remaining at 1 h, 2 μM: read-out: Human Metabolic Stability % Remaining after 1 h; for half-life at 2 μM: read-out: Human Metabolic Stability Half Life. It counts as in vitro ADME. How it is done: Human microsomal incubations were carried out in 96-well plates in 5 aliquots of 30 μL each (one for each time point). Human liver microsomal incubation medium comprised of phosphate buffer (100 mM, pH 7.4), MgCl2 (3.3 mM), NADPH (3 mM), glucose-6-phosphate (5.3 mM), glucose-6-phosphate dehydrogenase (0.67 units/mL) with 0.42 mg of liver microsomal protein per ml. In the control reactions, the NADPH-cofactor system was substituted with phosphate buffer. Test compounds (2 μM, final solvent concentration 1.6%) were incubated with microsomes at 37 °C and shaken at 100 rpm. Each reaction was performed in duplicates. Five time points over 40 min were analyzed. The reactions were stopped by adding 5 volumes of methanol containing the internal standard to the incubation aliquots, followed by protein sedimentation by centrifuging at 5500 rpm for 4 min. Supernatants were analyzed using the HPLC system coupled with a tandem mass spectrometer.

A short description of data set [3]: In vivo pharmacokinetic experiment. Further details: species or system C57BL/6J mice. The following applies: mice, 10 mg/kg; for Cmax (in words): oral. How it is done:
Twenty 8–9-week-old male C57BL/6J mice were taken for the in vivo pharmacokinetic experiment. They were divided into four groups, each containing five mice. Each group was used for either oral or intraperitoneal administration of compound 4f or 15a. Both the compounds were reconstituted in 5% DMSO, 5% TWEEN 80 in saline water (pH = 7.4). The mice were orally and intraperitoneally administered compounds at 10 mg/kg dose. Blood samples were collected at 0, 0.5, 1, 2, 4, 6, and 24 h after administration of the compound, and serum was isolated with the compound. For the pharmacokinetic study, 10 μL of serum samples from mice were extracted with a 2:1 mixture of LC/MS-grade chloroform and methanol, followed by intermittent vortexing, and then centrifuged at 4000 rpm for 10 min at 4 °C. Thereafter, the supernatant was collected and analyzed by LC−MS/MS to measure the concentrations of compounds 4f and 15a in the serum.

For data set [4], the system named is C57BL/6J male mice. The data set can be described thus: Tail-flick reflex model. It counts as in vivo. Particulars: single intraperitoneal injection at 10 mg/kg. How it is done: A tail-flick reflex test was performed as previously described. The parameters of the tail-flick instrument (7360, Ugo Basile Instruments, Varese, Italy) were set up to keep the baseline at 2.5–4.0 s. Mice were fixed and the part about 1.5–2 cm away from the tail of the mouse was aligned with the infrared emission hole of the instrument. […] Latencies of mice of less than 2 s or more than 5 s were excluded. […] The cut-off time in the tail-flick reflex test was set at 8 s to avoid sensitization and damage to the skin and to achieve the maximum possible effect (MPE%) = (measured value − basic value) × 100/(cut-off − basic value). C57BL/6J male mice obtained from The Jackson Laboratory (Bar Harbor, ME, USA) weighing 28 g were used for the tail-flick test. Animal procedures were conducted following the rules and regulations of the Institutional Animal Care and Use Committee of the National Institute on Alcohol Abuse and Alcoholism (NIAAA) under the protocols of LPS-GK1.

Consider `O=C(NC12CC3CC(CC(C3)C1)C2)NS(=O)(=O)c1ccc2ccccc2c1` [Compound 4l], for which the “analgesic effect in hot plate assay” value with C57BL/6J male mice [1] is “none of the sEH inhibitors, including AUDA, showed any analgesic effect”. In data set [2], the “compound recovery/stability in mouse plasma after 5 h incubation (%)” value was 88% and the fraction unbound at 5 h, 1 μM was 0.02. In “Microsomal stability”, the amount remaining at 1 h, 2 μM was determined as 45% and the half-life at 2 μM was 0.557 h. The “Cmax (in words)” value in data set [3] is recorded as “promising Cmax value”.
As to `O=C(NC12CC3CC(CC(C3)C1)C2)NS(=O)(=O)c1ccc(OC(F)(F)F)cc1` [Compound 4f], in the data set with C57BL/6J male mice [4], the “analgesic activity in tail-flick model” value is “significant efficacy”. Besides, in the data set on C57BL/6J male mice [1], the “analgesic effect in hot plate assay” value is given as “none of the sEH inhibitors, including AUDA, showed any analgesic effect”. In addition, in data set [2], the “compound recovery/stability in mouse plasma after 5 h incubation (%)” value is listed as 106% and the fraction unbound at 5 h, 1 μM is 0.02. Further, in “Microsomal stability”, the amount remaining at 1 h, 2 μM was found to be 80% and the half-life at 2 μM was 1.77 h. In addition, in data set [3] (male, C57BL/6J, mouse, serum, other: oral and intraperitoneal, oral and intraperitoneal administration, read-out: plasma half-life), the half-life is under 2 h. Further, the “Cmax (in words)” value in data set [3] is “better than that of 15a”.
